The assay concerns the target T1, Human GO (Homo sapiens, UniProt Q9UJM8).
T1 construct: purchased Novus Biologicals NBP1-72412
T1 sequence (Q9UJM8 1-370): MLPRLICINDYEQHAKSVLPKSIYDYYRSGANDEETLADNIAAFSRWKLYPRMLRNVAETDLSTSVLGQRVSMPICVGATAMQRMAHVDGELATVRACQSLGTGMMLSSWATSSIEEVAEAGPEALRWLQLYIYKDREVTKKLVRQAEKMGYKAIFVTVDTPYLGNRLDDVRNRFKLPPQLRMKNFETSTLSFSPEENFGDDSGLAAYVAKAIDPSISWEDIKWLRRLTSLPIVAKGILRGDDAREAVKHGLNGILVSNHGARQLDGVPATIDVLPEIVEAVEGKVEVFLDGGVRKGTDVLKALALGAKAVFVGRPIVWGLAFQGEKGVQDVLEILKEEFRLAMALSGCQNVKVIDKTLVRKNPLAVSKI
In words: GO enzymatic assay (coupled fluorescence/HRP assay, glycolate substrate). The format is biochemical. Summed up: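 Coupled HRP/fluorescence read-out of glycolate oxidation by human GO in 50 mM potassium phosphate buffer (pH 7). Inhibitors added across a concentration range.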

Where [1] appears, read: Table 2, read-out: Range (range of IC50 values calculated from the enzymatic assays).
Where [2] appears, read: Table 3, read-out: Range (range of IC50 values calculated from the enzymatic assays).
Where [3] appears, read: Table 4, read-out: Range (range of IC50 values calculated from the enzymatic assays).
The mark [4] stands for this setting: Table 5, GO enzymatic assay, read-out: Range (range of IC50 values calculated from the enzymatic assays).

Structures are written as SMILES. Like-named read-outs stand apart in the source and are kept apart here. Where only a bound is given, the exact number is not on record here.

One may read the IC50 as the point on the concentration scale where inhibition reaches its midpoint. On to `O=C(O)c1[nH]nnc1OCC1C2CN(c3ccc(Cl)c(Cl)c3)CC12` (centres unmarked) [Compound 369, 4-((3-(3,4-dichlorophenyl)-3-azabicyclo[3.1.0]hexan-6-yl)methoxy)-1H-1,2,3-triazole-5-carboxylic acid], for which the half-maximal inhibitory concentration (IC50) under setting [1] is less than 100 nM.

Regarding `CCN(CC)C(=O)OCOC(=O)c1[nH]nnc1O[C@H]1CC[C@H](c2ccc(OC(F)(F)F)cc2)CC1` [Compound 370, ((diethylcarbamoyl)oxy)methyl 4-(((trans)-4-(4-(trifluoromethoxy)phenyl)cyclohexyl)oxy)-1H-1,2,3-triazole-5-carboxylate], the IC50 under setting [1] is more than 10000 nM.

Consider `O=C(O)c1[nH]nnc1CCN(Cc1ccc(Cl)cc1)Cc1ccc(Cl)cc1` [Compound 372, 4-(2-(bis(4-chlorobenzyl)amino)ethyl)-1H-1,2,3-triazole-5-carboxylic acid 2,2,2-trifluoroacetate], for which the IC50 under setting [2] is 100 to 1000 nM.

`O=C(O)c1[nH]nnc1SCC1C2CN(c3ccc(Cl)c(Cl)c3)CC12` (centres unmarked) [Compound 373, 4-(((3-(3,4-dichlorophenyl)-3-azabicyclo[3.1.0]hexan-6-yl)methyl)thio)-1H-1,2,3-triazole-5-carboxylic acid]: the IC50 under setting [1] was less than 100 nM.

For `O=C(O)c1[nH]nnc1CCN(Cc1ccc(Cl)cc1)Cc1ccc(-c2ccc(OC(F)(F)F)cc2)cc1` [Compound 374, 4-(2-((4-chlorobenzyl)((4′-(trifluoromethoxy)-[1,1′-biphenyl]-4-yl)methyl)amino)ethyl)-1H-1,2,3-triazole-5-carboxylic acid 2,2,2-trifluoroacetate], the IC50 under setting [2] is 100 to 1000 nM.

With `O=C(O)c1[nH]nnc1Oc1cccc(OC2CCCC2)c1` [Compound 375, 4-(3-(cyclopentyloxy)phenoxy)-1H-1,2,3-triazole-5-carboxylic acid 2,2,2-trifluoroacetate], the IC50 under setting [1] is less than 100 nM.

On to `O=C(O)c1[nH]nnc1OC(c1ccccc1)C(O)c1ccc(Cl)cc1` (centres unmarked) [Compound 378, 4-(2-(4-chlorophenyl)-2-hydroxy-1-phenylethoxy)-1H-1,2,3-triazole-5-carboxylic acid], for which the IC50 by setting is: under setting [3], 100 to 1000 nM; under setting [4], 100 to 1000 nM.

As for `O=C(O)c1[nH]nnc1OC(Cc1ccc(Cl)cc1)Cc1ccc(-c2ccc(OC(F)(F)F)cc2)cc1` (centres unmarked) [Compound 385, 4-((1-(4-chlorophenyl)-3-(4′-(trifluoromethoxy)-[1,1′-biphenyl]-4-yl)propan-2-yl)oxy)-1H-1,2,3-triazole-5-carboxylic acid 2,2,2-trifluoroacetate], the IC50 under setting [4] was 100 to 1000 nM.

Turning to `N#Cc1ccc(-c2ccc(Sc3nn[nH]c3C(=O)O)cc2)cc1` [Compound 389, 4-((4′-cyano-[1,1′-biphenyl]-4-yl)thio)-1H-1,2,3-triazole-5-carboxylic acid 2,2,2-trifluoroacetate], under setting [3], the IC50 is less than 100 nM.

As to `CC(OC(=O)c1[nH]nnc1O[C@H]1CC[C@H](c2ccc(OC(F)(F)F)cc2)CC1)OC(=O)C1CCCCC1` (stereo partly drawn) [Compound 391, 1-((cyclohexanecarbonyl)oxy)ethyl 4-(((trans)-4-(4-(trifluoromethoxy)phenyl)cyclohexyl)oxy)-1H-1,2,3-triazole-5-carboxylate], under setting [3], the half-inhibitory concentration (IC50) was 100 to 1000 nM.

As for `CCC(OC(=O)c1[nH]nnc1O[C@H]1CC[C@H](c2ccc(OC(F)(F)F)cc2)CC1)OC(=O)C1CCCCC1` (stereo partly drawn) [Compound 392, 1-((cyclohexanecarbonyl)oxy)propyl 4-(((trans)-4-(4-(trifluoromethoxy)phenyl)cyclohexyl)oxy)-1H-1,2,3-triazole-5-carboxylate], the IC50 under setting [3] is 100 to 1000 nM.

`O=C(O)c1[nH]nnc1O[C@H]1CC[C@H](c2cc(Cl)ccc2OC(F)(F)F)CC1` [Compound 393, 4-(((trans)-4-(5-chloro-2-(trifluoromethoxy)phenyl)cyclohexyl)oxy)-1H-1,2,3-triazole-5-carboxylic acid]: under setting [3], the IC50 is less than 100 nM.

Regarding `O=C(O)c1[nH]nnc1Oc1ccc(F)c(OCc2ccc(OC(F)(F)F)cc2)c1` [Compound 400, 4-(4-fluoro-3-((4-(trifluoromethoxy)benzyl)oxy)phenoxy)-1H-1,2,3-triazole-5-carboxylic acid 2,2,2-trifluoroacetate], under setting [3], the IC50 is less than 100 nM.

In turn, `CS(=O)(=O)c1ccc(-c2ccc(Oc3[nH]nnc3C(=O)O)cc2)cc1` [Compound 401, 4-((4′-(methylsulfonyl)-[1,1′-biphenyl]-4-yl)oxy)-1H-1,2,3-triazole-5-carboxylic acid 2,2,2-trifluoroacetate] registered an IC50 of less than 100 nM.

Consider `O=C(O)c1[nH]nnc1SC1CCN(c2cc(OC(F)(F)F)ccc2Cl)CC1` [Compound 402, 4-((1-(2-chloro-5-(trifluoromethoxy)phenyl)piperidin-4-yl)thio)-1H-1,2,3-triazole-5-carboxylic acid], for which the IC50 under setting [3] is less than 100 nM.

For `O=C(O)c1[nH]nnc1Oc1ccc(-c2ccc(N3CCCCC3)cc2)c(Cl)c1` [Compound 406, 4-((2-chloro-4′-(piperidin-1-yl)-[1,1′-biphenyl]-4-yl)oxy)-1H-1,2,3-triazole-5-carboxylic acid 2,2,2-trifluoroacetate], under setting [3], the IC50 was less than 100 nM.

For `O=C(O)c1[nH]nnc1Oc1ccc(-c2ccc(N3CCCCC3)cc2Cl)cc1` [Compound 407, 4-((2′-chloro-4′-(piperidin-1-yl)-[1,1′-biphenyl]-4-yl)oxy)-1H-1,2,3-triazole-5-carboxylic acid], the IC50 under setting [3] is less than 100 nM.

For the compound `O=C(O)c1[nH]nnc1Oc1ccc(Cl)c(OCc2ccc(OC(F)(F)F)cc2)c1` [Compound 408, 4-(4-chloro-3-((4-(trifluoromethoxy)benzyl)oxy)phenoxy)-1H-1,2,3-triazole-5-carboxylic acid], under setting [3], the IC50 is less than 100 nM.

With `NS(=O)(=O)c1ccc(-c2ccc(Oc3nn[nH]c3C(=O)O)cc2)cc1` [Compound 413, 4-((4′-sulfamoyl-[1,1′-biphenyl]-4-yl)oxy)-1H-1,2,3-triazole-5-carboxylic acid], the IC50 under setting [3] was less than 100 nM.

Turning to `O=C(O)c1[nH]nnc1Oc1ccc(Cl)c(OCc2ccc(C(F)(F)F)cc2)c1` [Compound 415, 4-(4-chloro-3-((4-(trifluoromethyl)benzyl)oxy)phenoxy)-1H-1,2,3-triazole-5-carboxylic acid], under setting [3], the IC50 is less than 100 nM.

With `N#Cc1ccc(Oc2nn[nH]c2C(=O)O)cc1OCc1ccc(OC(F)(F)F)cc1` [Compound 421, 4-(4-cyano-3-((4-(trifluoromethoxy)benzyl)oxy)phenoxy)-1H-1,2,3-triazole-5-carboxylic acid], the IC50 under setting [3] is less than 100 nM.

Regarding `O=C(O)c1[nH]nnc1O[C@H]1C[C@@H]2CN(c3ccc(Cl)c(Cl)c3)C[C@@H]2C1` [Compound 427, 4-(((3aR,5s,6aS)-2-(3,4-dichlorophenyl)octahydrocyclopenta[c]pyrrol-5-yl)oxy)-1H-1,2,3-triazole-5-carboxylic acid], under setting [3], the concentration for half-maximal inhibition (IC50) was less than 100 nM.

On to `O=C(O)c1[nH]nnc1S[C@H]1C[C@@H]2CN(c3ccc(Cl)c(Cl)c3)C[C@@H]2C1` [Compound 428, 4-(((3aR,5s,6aS)-2-(3,4-dichlorophenyl)octahydrocyclopenta[c]pyrrol-5-yl)thio)-1H-1,2,3-triazole-5-carboxylic acid], for which the IC50 under setting [3] is less than 100 nM.

For the compound `O=C(O)c1[nH]nnc1OC1CCN(c2cc(OC(F)(F)F)ccc2Cl)CC1` [Compound 429, 4-((1-(2-chloro-5-(trifluoromethoxy)phenyl)piperidin-4-yl)oxy)-1H-1,2,3-triazole-5-carboxylic acid], under setting [3], the IC50 was less than 100 nM.

Turning to `O=C(O)c1[nH]nnc1CSC1CCC2(CCCC2)CC1` [Compound 435, 4-((spiro[4.5]decan-8-ylthio)methyl)-1H-1,2,3-triazole-5-carboxylic acid], under setting [3], the IC50 is less than 100 nM.

Take `N#CC1(c2ccc(OC(F)(F)F)cc2)CCC(Oc2nn[nH]c2C(=O)O)CC1` (centres unmarked) [Compound 437, 4-((4-cyano-4-(4-(trifluoromethoxy)phenyl)cyclohexyl)oxy)-1H-1,2,3-triazole-5-carboxylic acid]: under setting [3], the half-inhibitory concentration (IC50) is less than 100 nM.

Take `COC1(c2ccc(OC(F)(F)F)cc2)CC(Oc2nn[nH]c2C(=O)O)C1` (centres unmarked) [Compound 440, 4-(3-methoxy-3-(4-(trifluoromethoxy)phenyl)cyclobutoxy)-1H-1,2,3-triazole-5-carboxylic acid]: under setting [3], the IC50 is 100 to 1000 nM.

Regarding `O=C(O)c1[nH]nnc1S[C@H]1CC[C@@H](c2ccc(N3CCCCC3)c(Cl)c2)CC1` [Compound 442-1, 4-(((cis)-4-(3-chloro-4-(piperidin-1-yl)phenyl)cyclohexyl)thio)-1H-1,2,3-triazole-5-carboxylic acid 2,2,2-trifluoroacetate], the IC50 under setting [3] was less than 100 nM.

Take `O=C(O)c1[nH]nnc1S[C@H]1CC[C@H](c2ccc(N3CCCCC3)c(Cl)c2)CC1` [Compound 442-2, 4-(((trans)-4-(3-chloro-4-(piperidin-1-yl)phenyl)cyclohexyl)thio)-1H-1,2,3-triazole-5-carboxylic acid 2,2,2-trifluoroacetate]: the IC50 under setting [3] is less than 100 nM.

With `C[C@]1(c2ccc(OC(F)(F)F)cc2)CC[C@H](Oc2nn[nH]c2C(=O)O)CC1` [Compound 443, 4-(((1r,4r)-4-methyl-4-(4-(trifluoromethoxy)phenyl)cyclohexyl)oxy)-1H-1,2,3-triazole-5-carboxylic acid], under setting [3], the IC50 was less than 100 nM.

Take `C[C@]1(c2ccc(OC(F)(F)F)cc2)CC[C@@H](Oc2nn[nH]c2C(=O)O)CC1` [Compound 444, 4-(((1s,4s)-4-methyl-4-(4-(trifluoromethoxy)phenyl)cyclohexyl)oxy)-1H-1,2,3-triazole-5-carboxylic acid]: the IC50 under setting [3] was less than 100 nM.
